# Reference: paper PMC3010197 (Biochemistry, 2010)
# Values joined by “and” are separate entries in the source; they are usually repeats but may differ in a detail not shown here. Equal values may be shown once. Read-outs that look alike come from different tables or passages of the source.
# T1: Pnc1 (Saccharomyces cerevisiae nicotinamidase) (Saccharomyces cerevisiae, UniProt P53184)
# T1 sequence (P53184 1-216): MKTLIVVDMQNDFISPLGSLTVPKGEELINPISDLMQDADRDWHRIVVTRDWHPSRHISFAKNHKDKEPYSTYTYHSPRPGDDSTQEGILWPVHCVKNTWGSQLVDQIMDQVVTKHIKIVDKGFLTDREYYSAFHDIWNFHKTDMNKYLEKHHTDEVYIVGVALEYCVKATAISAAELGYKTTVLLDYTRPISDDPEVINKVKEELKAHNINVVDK
# Key:
# [1] = molecular target: T2, PfNic (Plasmodium falciparum nicotinamidase) (Plasmodium falciparum, UniProt O97284); assay type: biochemical
# [2] = molecular target: T3, SpNic (Streptococcus pneumoniae nicotinamidase) (Streptococcus pneumoniae, UniProt A0A0H2UR34); assay type: biochemical
# [3] = molecular target: T1, Pnc1 (Saccharomyces cerevisiae nicotinamidase); assay: Substrate specificity: relative rates for nicotinamide analogues; assay type: biochemical
# [4] = molecular target: T4, BbNic (Borrelia burgdorferi nicotinamidase) (Borreliella burgdorferi, UniProt O50718); assay type: biochemical
# [5] = no reference given; cited from earlier work
# nicotinamidases = assay: Class-wide statements for all nicotinamidases studied; assay type: biochemical
# [6] = molecular target: T1, Pnc1 (Saccharomyces cerevisiae nicotinamidase); assay: Steady state progress curve analysis, GDH coupled assay; conditions: substrate nicotinamide, 100 µM nicotinamide, pH 7.3
# [7] = molecular target: T3, SpNic (Streptococcus pneumoniae nicotinamidase); assay: as above; assay type: biochemical; conditions: substrate nicotinamide, 100 µM nicotinamide, pH 7.3
# SPNic C136A mutant = assay: Nicotinamidase catalytic rate of SpNic and mutants; assay type: biochemical, Streptococcus pneumoniae; conditions: 200 µM NAM, 37 °C, HPLC assay
# [8] = molecular target: T4, BbNic (Borrelia burgdorferi nicotinamidase); assay: Steady state kinetics of nicotinamide hydrolysis, HPLC assay; assay type: biochemical; conditions: substrate nicotinamide, 100 mM phosphate pH 7.3
# SPNic C136S mutant = assay: Nicotinamidase catalytic rate of SpNic and mutants; assay type: biochemical, Streptococcus pneumoniae; conditions: 200 µM NAM, 37 °C, HPLC assay
# [9] = molecular target: T2, PfNic (Plasmodium falciparum nicotinamidase); assay: biochemical
# [10] = molecular target: S. cerevisiae nicotinamidase; conditions: reported as non-competitive; cited from earlier work
# [11] = molecular target: T1, Pnc1 (Saccharomyces cerevisiae nicotinamidase); assay: Inhibition analysis, GDH coupled nicotinamidase assay; assay type: biochemical; conditions: Km of nicotinamide over Ki of nicotinaldehyde
# [12] = test system: Bovine glutamate dehydrogenase (GDH); conditions: GDH Km for NADPH; cited from earlier work
# Steady state analysis = substrate: NC(=O)c1cccnc1; assay: Steady state analysis; assay type: biochemical, Caenorhabditis elegans; conditions: other: substrate nicotinamide, initial rates, pH 7.3
# [13] = footnote a: GDH coupled fluorescence assay, 500 µM analogue, pH 7.3
# [14] = footnote b: HPLC assay, 500 µM analogue, pH 7.3, 37 °C
molecule,measurement,setting,value
"Cc1cncc(C(N)=O)c1 [compound 1, 5-methylnicotinamide]",Relative rate (nicotinamide = 1.00),[1]; [13],3.30
same,Relative rate (nicotinamide = 1.00),[2]; [13],1.63
same,Relative rate (nicotinamide = 1.00),[3]; [13],0.80
same,Relative rate (nicotinamide = 1.00),[4]; [13],0.51
"NC(=O)c1ccncc1 [compound 8, isonicotinamide]",Relative rate (nicotinamide = 1.00),[1]; [14],0
same,Relative rate (nicotinamide = 1.00),[2]; [14],0
same,Relative rate (nicotinamide = 1.00),[3]; [14],0
"COC(=O)c1cccnc1 [compound 11, methylnicotinate]",Relative rate (nicotinamide = 1.00),[1]; [14],65.0
same,Relative rate (nicotinamide = 1.00),"[1]; footnote b: HPLC assay, 500 µM analogue, pH 7.3, 37 °C, listed as methylnicotinate",65
same,steady state rate constant of turnover,[1]; methylnicotinate as substrate,18 s⁻¹
same,Relative rate (nicotinamide = 1.00),[2]; [14],0.035
same,Relative rate (nicotinamide = 1.00),[3]; [14],0.15
"C[n+]1cccc(C(N)=O)c1 [compound 14, 1-Methylnicotinamide]",Relative rate (nicotinamide = 1.00),[1]; [14],0
same,Relative rate (nicotinamide = 1.00),[2]; [14],0
same,Relative rate (nicotinamide = 1.00),[3]; [14],0
"O=C(O)c1cccnc1 [nicotinic acid, reference compound]",pKa,[5],~3
same,effect on nicotinamidase rates (product inhibition),"nicotinamidases; nicotinic acid up to 500 µM, all enzymes, data not shown",do not vary
NC(=O)c1cccnc1 [nicotinamide],Relative rate (nicotinamide = 1.00),[1]; no method footnote,1.00
same,kcat,[6],3.8 s^−1 and 3.8 ± 0.1 ^b s^−1
same,kcat,[7],2.1 s⁻¹
same,Relative rate (nicotinamide = 1.00),[2]; no method footnote,1.00
same,Catalytic rate (kobs),SPNic C136A mutant,< 10^−6 s^−1
same,Relative rate (nicotinamide = 1.00),[3]; no method footnote,1.00
same,Km,[8]; Michaelis-Menten fit,36.7 ± 7.5 µM
same,kcat,[8]; confirmed by HPLC assay,0.0030 ± 0.0002 ^b s^−1
same,Relative rate (nicotinamide = 1.00),[4]; no method footnote,1.00
same,Catalytic rate (kobs),SPNic C136S mutant,< 10^−6 s^−1
"O=Cc1ccc(F)nc1 [compound 21, 6-Fluoro-3-pyridinecarboxaldehyde]",Ki,[9],4.9 µM
"O=C(Oc1ccccc1)c1cccnc1 [compound 13, phenylnicotinate]",Relative rate (nicotinamide = 1.00),[1]; [14],0.13
same,Relative rate (nicotinamide = 1.00),[2]; [14],0.031
same,Relative rate (nicotinamide = 1.00),[3]; [14],0.031
"C[n+]1ccc(C(N)=O)cc1 [compound 15, 1-methyl isonicotinamide]",Relative rate (nicotinamide = 1.00),[1]; [14],0
same,Relative rate (nicotinamide = 1.00),[2]; [14],0
same,Relative rate (nicotinamide = 1.00),[3]; [14],0
"NC(=O)c1ccc(N)nc1 [compound 6, 6-aminonicotinamide]",Relative rate (nicotinamide = 1.00),[1]; [13],0.45
same,Relative rate (nicotinamide = 1.00),[2]; [13],0.36
same,Relative rate (nicotinamide = 1.00),[3]; [13],0.20
"N#Cc1cccnc1 [compound 23, 3-cyanopyridine]",Ki,[9],1000 µM
"CCOC(=O)c1cccnc1 [compound 12, ethylnicotinate]",Relative rate (nicotinamide = 1.00),[1]; [14],0.023
same,Relative rate (nicotinamide = 1.00),[2]; [14],0.0086
same,Relative rate (nicotinamide = 1.00),[3]; [14],0.044
"NC(=O)c1ccc(Cl)nc1 [compound 4, 6-chloronicotinamide]",Relative rate (nicotinamide = 1.00),[1]; [14],0
same,Relative rate (nicotinamide = 1.00),[2]; [14],0.018
same,Relative rate (nicotinamide = 1.00),[3]; [14],0.17
same,Relative rate (nicotinamide = 1.00),[4]; [14],0
"COc1cncc(C(N)=O)c1 [compound 2, 5-Methoxynicotinamide]",Relative rate (nicotinamide = 1.00),[1]; [14],6.46
same,Relative rate (nicotinamide = 1.00),[2]; [14],1.37
same,Relative rate (nicotinamide = 1.00),[3]; [14],2.06
same,Relative rate (nicotinamide = 1.00),[4]; [14],2.21
"O=Cc1cccnc1 [compound 16, nicotinaldehyde]",Ki,[10],68 µM
same,Ki,[9],0.034 ± 0.007 µM
same,factor by which Ki is smaller than the Km for nicotinamide,nicotinamidases; across all enzymes studied except yeast pnc1,91–3450
same,mode of inhibition (double reciprocal plots),"nicotinamidases; versus nicotinamide, in all cases",competitive inhibition
same,Km/Ki,[11],7.6
"NC(=O)c1ccnc(N)c1 [compound 9, 2-Aminoisonicotinamide]",Relative rate (nicotinamide = 1.00),[1]; [14],0
same,Relative rate (nicotinamide = 1.00),[2]; [14],0
same,Relative rate (nicotinamide = 1.00),[3]; [14],0
"NC(=O)c1cccnc1Cl [compound 3, 2-chloronicotinamide]",Relative rate (nicotinamide = 1.00),[1]; [14],0
same,Relative rate (nicotinamide = 1.00),[2]; [14],0
same,Relative rate (nicotinamide = 1.00),[3]; [14],0
same,Relative rate (nicotinamide = 1.00),[4]; [14],0
"NC(=O)C1=CN([C@@H]2O[C@H](COP(=O)(O)OP(=O)(O)OC[C@H]3O[C@@H](n4cnc5c(N)ncnc54)[C@H](OP(=O)(O)O)[C@@H]3O)[C@@H](O)[C@H]2O)C=CC1 [NADPH, nicotinamide adenine dinucleotide phosphate reduced form]",Km,[12],28 µM
"CC(=O)c1cccnc1 [compound 24, acetylpyridine]",Ki,[9],10 µM
"COc1ccncc1C(N)=O [compound 7, 4-Methoxynicotinamide]",Relative rate (nicotinamide = 1.00),[1]; [14],0.12
same,Relative rate (nicotinamide = 1.00),[2]; [14],0.065
same,Relative rate (nicotinamide = 1.00),[3]; [14],0.050
same,Relative rate (nicotinamide = 1.00),[4]; [14],0.20
"NC(=S)c1cccnc1 [compound 10, Thionicotinamide]",Relative rate (nicotinamide = 1.00),[1]; no method footnote,0
same,Relative rate (nicotinamide = 1.00),[2]; no method footnote,0
same,Relative rate (nicotinamide = 1.00),[3]; no method footnote,0.44
same,Relative rate (nicotinamide = 1.00),[4]; no method footnote,0
"Cc1cncc(C=O)c1 [compound 19, 5-methylnicotinaldehyde]",Ki,[9],0.023 ± 0.005 µM
"Cc1ccc(C(N)=O)cn1 [compound 5, 6-methylnicotinamide]",Relative rate (nicotinamide = 1.00),[1]; [13],0.40
same,Relative rate (nicotinamide = 1.00),[2]; [13],0.11
same,Relative rate (nicotinamide = 1.00),[3]; [13],0
same,Relative rate (nicotinamide = 1.00),[4]; [13],0.45
CePNC2 (Caenorhabditis elegans nicotinamidase 2) (Caenorhabditis elegans) (protein) MGVVQNEQDIREKMKNELISLVNEIDLIPELDRLLDDFIENKTWNEDTQELFTRVVLKPFTTLRTSLLVVDFQNDFVTGSLSIKEGDAEQDPLEALPHVNNLLENLNWNMIVYTQDWHPSNHISFFEHARNPDRELAPEDKSRKLRPFDIVRFVKPVSTIQVLYPSHCIQGGWGSQLHLGLQRIDGAHYIKKGADVYVDAYSAFSDNCGIKQSELEMLLRKNDINAVIGCGLAYDICVMHTLKDASKHGFLTCIVKSGSKGLSSLKMDEANKMFQKRGVAIIDDEMAQLISRREAFPIEWIRLLVHQAQSELHGKK,Km,Steady state analysis,76 ± 10 µM
same,kcat,Steady state analysis,0.28 ± 0.013 s⁻¹
CePNC1 (Caenorhabditis elegans nicotinamidase 1) (Caenorhabditis elegans) (protein) DNSATTNNNTILGNQSLEAIPEQLSELTGITVEESERIMESWLGNRQLDLRTSVLFDQEVLSRLRSLRVALLVVDFQNDFVDGSLKIGDGDAGQEPSSAITPLNELLQLSSWDLVVYTKDWHPHNHISFLSQAHNSDRVMDEKDENKTLGFFDSVQFLKPIKTEQVLYPDHCIQKSWGSDIHPEIYIADNAEYIMKGVDPYLDSYSAFNDNNGRSKTELEDLLRRENIDAVVIAGLAYDICVRFTCLDAVKQNFLAAVIPECSAGLTKKGIEESEMAFKKQGVAMISKDEARGITEGGFLPREWVQRIVKK,Km,Steady state analysis,113 ± 11 µM
same,kcat,Steady state analysis,3.1 ± 0.12 s⁻¹
